Test results: ChEMBL document CHEMBL1152634, “Synthesis and evaluation of novel alpha-heteroaryl-phenylpropanoic acid derivatives as PPARalpha/gamma dual agonists” (Bioorg Med Chem, 2009)

What was measured:
[1] = Half life in dog at 1 mg/kg, iv; type: ADME, organism-based, Canis lupus familiaris; parameters: dose 1 mg/kg, route intravenous; conditions: in vivo
[2] = AUC in rat at 1 mg/kg, iv; type: ADME, organism-based; parameters: dose 1 mg/kg, route intravenous; conditions: plasma
[3] = Volume of distribution at steady state in dog at 1 mg/kg, iv; type: ADME, organism-based, Canis lupus familiaris; parameters: dose 1 mg/kg, route intravenous; conditions: in vivo, read-out: Vdss
[4] = AUC in rat at 3 mg/kg, po; type: ADME, organism-based; parameters: dose 3 mg/kg, route oral; conditions: plasma
[5] = Oral bioavailability in dog at 3 mg/kg, po; type: ADME, organism-based, Canis lupus familiaris; conditions: in vivo
[6] = AUC in dog at 1 mg/kg, iv; type: ADME, organism-based, Canis lupus familiaris; parameters: dose 1 mg/kg, route intravenous; conditions: plasma
[7] = Clearance in dog at 1 mg/kg, iv; type: ADME, organism-based, Canis lupus familiaris; parameters: dose 1 mg/kg, route intravenous; conditions: in vivo
[8] = Volume of distribution at steady state in rat at 1 mg/kg, iv; type: ADME, organism-based; parameters: dose 1 mg/kg, route intravenous; conditions: in vivo, read-out: Vdss
[9] = Clearance in rat at 1 mg/kg, iv; type: ADME, organism-based; parameters: dose 1 mg/kg, route intravenous; conditions: in vivo
[10] = AUC in dog at 3 mg/kg, po; type: ADME, organism-based, Canis lupus familiaris; parameters: dose 3 mg/kg, route oral; conditions: plasma
[11] = Half life in rat at 1 mg/kg, iv; type: ADME, organism-based; parameters: dose 1 mg/kg, route intravenous; conditions: in vivo
[12] = Oral bioavailability in rat at 3 mg/kg, po; type: ADME, organism-based; conditions: in vivo

half-life [1]: 5.8 h
AUC [2]: 928 ng·h/mL
Vd [3]: 0.82 L/kg
AUC [4]: 1170 ng·h/mL
bioavailability [5]: > 95%
AUC [6]: 3970 ng·h/mL
clearance [7]: 4.4 mL/min/kg
Vd [8]: 2.9 L/kg
clearance [9]: 18 mL/min/kg
AUC [10]: 13000 ng·h/mL
half-life [11]: 7.5 h
bioavailability [12]: 42%
Compound: Cc1oc(-c2ccccc2)nc1CCCc1ccc(C[C@@H](C(=O)O)n2nccn2)cc1
